≈ marks a conversion by molar mass, not a printed value.
Assays:
Type in all cases: functional
Trichosporon asahii = assay: Antimicrobial activity against Trichosporon asahii isolate
[Candida] inconspicua = Antimicrobial activity against Candida inconspicua isolate; details: Pichia inconspicua
Kodamaea ohmeri = assay: Antimicrobial activity against Pichia ohmeri isolate
[Candida] palmioleophila = Antimicrobial activity against Candida palmioleophila isolate; details: Suzukiozyma palmioleophila
Trichosporon = assay: Antimicrobial activity against Trichosporon isolate
[Candida] haemuloni = Antimicrobial activity against Candida haemulonii isolate; details: Candidozyma haemuli
Diutina rugosa = assay: Antimicrobial activity against Candida rugosa isolate
Meyerozyma caribbica = assay: Antimicrobial activity against Candida fermentati isolate
Rhodotorula mucilaginosa = assay: Antimicrobial activity against Rhodotorula mucilaginosa isolate
Candida africana = assay: Antimicrobial activity against Candida africana isolate
Yarrowia lipolytica = assay: Antimicrobial activity against Candida lipolytica isolate
[1] = system: Cutaneotrichosporon mucoides; assay: Antimicrobial activity against Trichosporon mucoides isolate
Wickerhamomyces anomalus = assay: Antimicrobial activity against Candida pelliculosa isolate; details: Hansenula anomala
Debaryomyces hansenii = assay: Antimicrobial activity against Candida famata isolate
Apiotrichum loubieri = assay: Antimicrobial activity against Trichosporon loubieri isolate
Saccharomyces cerevisiae = assay: Antimicrobial activity against Saccharomyces cerevisiae isolate
Cyberlindnera jadinii = assay: Antimicrobial activity against Candida utilis isolate; details: Williopsis jadinii
Magnusiomyces capitatus = assay: Antimicrobial activity against Geotrichum capitatum isolate
Trichosporon inkin = assay: Antimicrobial activity against Trichosporon inkin isolate
Candida parapsilosis [2] = assay: Antimicrobial activity against Candida parapsilosis blood isolate; details: Lodderomyces parapsilosis
Clavispora lusitaniae [3] = assay: Antimicrobial activity against Candida lusitaniae isolate from superficial infection
[4] = system: Meyerozyma guilliermondii; assay: Antimicrobial activity against Candida guilliermondii isolate
Pichia kudriavzevii [5] = assay: Antimicrobial activity against Candida krusei isolate from superficial infection
Cryptococcus neoformans [6] = assay: Antimicrobial activity against Cryptococcus neoformans blood isolate
Candida tropicalis [7] = assay: Antimicrobial activity against Candida tropicalis isolate
Pichia kudriavzevii [8] = assay: Antimicrobial activity against Candida krusei blood isolate
Candida dubliniensis [9] = assay: Antimicrobial activity against Candida dubliniensis blood isolate
Clavispora lusitaniae [10] = assay: Antimicrobial activity against Candida lusitaniae blood isolate
Candida parapsilosis [11] = assay: Antimicrobial activity against Candida parapsilosis isolate from superficial infection; details: Lodderomyces parapsilosis
Cryptococcus neoformans [12] = assay: Antimicrobial activity against Cryptococcus neoformans isolate
Clavispora lusitaniae [13] = assay: Antimicrobial activity against Candida lusitaniae isolate
[14] = system: Meyerozyma guilliermondii; assay: Antimicrobial activity against Candida guilliermondii blood isolate
Pichia kudriavzevii [15] = assay: Antimicrobial activity against Candida krusei isolate
Kluyveromyces marxianus [16] = assay: Antimicrobial activity against Candida kefyr blood isolate
Kluyveromyces marxianus [17] = assay: Antimicrobial activity against Candida kefyr isolate
Candida tropicalis [18] = assay: Antimicrobial activity against Candida tropicalis blood isolate
Candida albicans [19] = assay: Antimicrobial activity against Candida albicans isolate
Candida albicans [20] = assay: Antimicrobial activity against Candida albicans isolate from superficial infection
Candida albicans [21] = assay: Antimicrobial activity against Candida albicans blood isolate
Cryptococcus neoformans [22] = assay: Antimicrobial activity against Cryptococcus neoformans isolate from superficial infection
Candida dubliniensis [23] = assay: Antimicrobial activity against Candida dubliniensis isolate from superficial infection
Candida parapsilosis [24] = assay: Antimicrobial activity against Candida parapsilosis isolate; details: Lodderomyces parapsilosis
Candida dubliniensis [25] = assay: Antimicrobial activity against Candida dubliniensis isolate
Nakaseomyces glabratus [26] = assay: Antimicrobial activity against Candida glabrata isolate from superficial infection
Candida tropicalis [27] = assay: Antimicrobial activity against Candida tropicalis isolate from superficial infection
Nakaseomyces glabratus [28] = assay: Antimicrobial activity against Candida glabrata blood isolate
[29] = system: Meyerozyma guilliermondii; assay: Antimicrobial activity against Candida guilliermondii isolate from superficial infection
Nakaseomyces glabratus [30] = assay: Antimicrobial activity against Candida glabrata isolate

C[C@@H](c1ncncc1F)[C@](O)(Cn1cncn1)c1ccc(F)cc1F [VORICONAZOLE]
MIC50 (Trichosporon asahii): 0.03 µg/mL (≈ 0.0859 µM) | MIC50 ([Candida] inconspicua): 0.06 µg/mL (≈ 0.172 µM) | MIC50 (Kodamaea ohmeri): 0.03 µg/mL (≈ 0.0859 µM) | MIC50 ([Candida] palmioleophila): 0.06 µg/mL (≈ 0.172 µM) | MIC50 (Trichosporon): 0.03 µg/mL (≈ 0.0859 µM) | MIC50 ([Candida] haemuloni): ≥ 8 µg/mL | MIC90 ([Candida] haemuloni): ≥ 8 µg/mL | MIC50 (Diutina rugosa): ≤ 0.015 µg/mL | MIC50 (Meyerozyma caribbica): 0.125 µg/mL (≈ 0.358 µM) | MIC90 (Meyerozyma caribbica): 1 µg/mL (≈ 2.86 µM) | MIC50 (Rhodotorula mucilaginosa): 2 µg/mL (≈ 5.73 µM) | MIC50 (Candida africana): ≤ 0.015 µg/mL | MIC50 (Yarrowia lipolytica): ≤ 0.015 µg/mL | MIC50 [1]: 0.03 µg/mL (≈ 0.0859 µM) | MIC50 (Wickerhamomyces anomalus): 0.03 µg/mL (≈ 0.0859 µM) | MIC50 (Debaryomyces hansenii): ≤ 0.015 µg/mL | MIC50 (Apiotrichum loubieri): 0.03 µg/mL (≈ 0.0859 µM) | MIC50 (Saccharomyces cerevisiae): ≤ 0.015 µg/mL | MIC50 (Cyberlindnera jadinii): 0.03 µg/mL (≈ 0.0859 µM) | MIC50 (Magnusiomyces capitatus): ≤ 0.015 µg/mL | MIC50 (Trichosporon inkin): ≤ 0.015 µg/mL

CC[C@@H]([C@H](C)O)n1ncn(-c2ccc(N3CCN(c4ccc(OC[C@@H]5CO[C@@](Cn6cncn6)(c6ccc(F)cc6F)C5)cc4)CC3)cc2)c1=O [POSACONAZOLE]
MIC50 (Trichosporon asahii): 0.25 µg/mL (≈ 0.357 µM) | MIC50 (Candida parapsilosis [2]): 0.125 µg/mL (≈ 0.178 µM) | MIC90 (Candida parapsilosis [2]): 0.25 µg/mL (≈ 0.357 µM) | MIC (Clavispora lusitaniae [3]): 0.03 µg/mL (≈ 0.0428 µM) | MIC50 [4]: 0.25 µg/mL (≈ 0.357 µM) | MIC90 [4]: 0.5 µg/mL (≈ 0.713 µM) | MIC50 (Pichia kudriavzevii [5]): 0.25 µg/mL (≈ 0.357 µM) | MIC90 (Pichia kudriavzevii [5]): 0.5 µg/mL (≈ 0.713 µM) | MIC50 (Cryptococcus neoformans [6]): 0.125 µg/mL (≈ 0.178 µM) | MIC90 (Cryptococcus neoformans [6]): 0.5 µg/mL (≈ 0.713 µM) | MIC50 ([Candida] inconspicua): 0.125 µg/mL (≈ 0.178 µM) | MIC50 (Candida tropicalis [7]): 0.125 µg/mL (≈ 0.178 µM) | MIC90 (Candida tropicalis [7]): 0.25 µg/mL (≈ 0.357 µM) | MIC50 (Kodamaea ohmeri): 0.06 µg/mL (≈ 0.0856 µM) | MIC50 ([Candida] palmioleophila): 0.125 µg/mL (≈ 0.178 µM) | MIC50 (Pichia kudriavzevii [8]): 0.25 µg/mL (≈ 0.357 µM) | MIC90 (Pichia kudriavzevii [8]): 0.5 µg/mL (≈ 0.713 µM) | MIC50 (Trichosporon): 0.06 µg/mL (≈ 0.0856 µM) | MIC50 ([Candida] haemuloni): ≥ 8 µg/mL | MIC90 ([Candida] haemuloni): ≥ 8 µg/mL | MIC50 (Candida dubliniensis [9]): 0.06 µg/mL (≈ 0.0856 µM) | MIC90 (Candida dubliniensis [9]): 0.125 µg/mL (≈ 0.178 µM) | MIC50 (Diutina rugosa): 0.06 µg/mL (≈ 0.0856 µM) | MIC50 (Clavispora lusitaniae [10]): 0.06 µg/mL (≈ 0.0856 µM) | MIC90 (Clavispora lusitaniae [10]): 0.25 µg/mL (≈ 0.357 µM) | MIC50 (Candida parapsilosis [11]): 0.125 µg/mL (≈ 0.178 µM) | MIC90 (Candida parapsilosis [11]): 0.25 µg/mL (≈ 0.357 µM) | MIC50 (Cryptococcus neoformans [12]): 0.125 µg/mL (≈ 0.178 µM) | MIC90 (Cryptococcus neoformans [12]): 0.5 µg/mL (≈ 0.713 µM) | MIC50 (Clavispora lusitaniae [13]): 0.06 µg/mL (≈ 0.0856 µM) | MIC90 (Clavispora lusitaniae [13]): 0.25 µg/mL (≈ 0.357 µM) | MIC50 (Meyerozyma caribbica): 0.25 µg/mL (≈ 0.357 µM) | MIC90 (Meyerozyma caribbica): 1 µg/mL (≈ 1.43 µM) | MIC50 (Rhodotorula mucilaginosa): 1 µg/mL (≈ 1.43 µM) | MIC50 (Candida africana): ≤ 0.015 µg/mL | MIC50 [14]: 0.25 µg/mL (≈ 0.357 µM) | MIC90 [14]: 1 µg/mL (≈ 1.43 µM) | MIC50 (Pichia kudriavzevii [15]): 0.25 µg/mL (≈ 0.357 µM) | MIC90 (Pichia kudriavzevii [15]): 0.5 µg/mL (≈ 0.713 µM) | MIC50 (Kluyveromyces marxianus [16]): 0.125 µg/mL (≈ 0.178 µM) | MIC90 (Kluyveromyces marxianus [16]): 0.5 µg/mL (≈ 0.713 µM) | MIC50 (Yarrowia lipolytica): 0.125 µg/mL (≈ 0.178 µM) | MIC50 (Kluyveromyces marxianus [17]): 0.125 µg/mL (≈ 0.178 µM) | MIC90 (Kluyveromyces marxianus [17]): 0.25 µg/mL (≈ 0.357 µM) | MIC50 (Candida tropicalis [18]): 0.125 µg/mL (≈ 0.178 µM) | MIC90 (Candida tropicalis [18]): 0.5 µg/mL (≈ 0.713 µM) | MIC50 [1]: 0.06 µg/mL (≈ 0.0856 µM) | MIC50 (Wickerhamomyces anomalus): 0.06 µg/mL (≈ 0.0856 µM) | MIC50 (Candida albicans [19]): 0.06 µg/mL (≈ 0.0856 µM) | MIC90 (Candida albicans [19]): 0.125 µg/mL (≈ 0.178 µM) | MIC50 (Debaryomyces hansenii): 0.125 µg/mL (≈ 0.178 µM) | MIC50 (Candida albicans [20]): 0.06 µg/mL (≈ 0.0856 µM) | MIC90 (Candida albicans [20]): 0.25 µg/mL (≈ 0.357 µM) | MIC50 (Apiotrichum loubieri): 0.06 µg/mL (≈ 0.0856 µM) | MIC50 (Candida albicans [21]): 0.03 µg/mL (≈ 0.0428 µM) | MIC90 (Candida albicans [21]): 0.125 µg/mL (≈ 0.178 µM) | MIC50 (Cryptococcus neoformans [22]): 0.125 µg/mL (≈ 0.178 µM) | MIC90 (Cryptococcus neoformans [22]): 0.5 µg/mL (≈ 0.713 µM) | MIC (Candida dubliniensis [23]): ≤ 0.015 µg/mL | MIC50 (Saccharomyces cerevisiae): 0.03 µg/mL (≈ 0.0428 µM) | MIC50 (Cyberlindnera jadinii): 0.125 µg/mL (≈ 0.178 µM) | MIC50 (Candida parapsilosis [24]): 0.125 µg/mL (≈ 0.178 µM) | MIC90 (Candida parapsilosis [24]): 0.25 µg/mL (≈ 0.357 µM) | MIC50 (Magnusiomyces capitatus): 0.5 µg/mL (≈ 0.713 µM) | MIC50 (Candida dubliniensis [25]): 0.06 µg/mL (≈ 0.0856 µM) | MIC90 (Candida dubliniensis [25]): 0.125 µg/mL (≈ 0.178 µM) | MIC50 (Nakaseomyces glabratus [26]): 1 µg/mL (≈ 1.43 µM) | MIC90 (Nakaseomyces glabratus [26]): ≥ 8 µg/mL | MIC50 (Trichosporon inkin): 0.06 µg/mL (≈ 0.0856 µM) | MIC50 (Candida tropicalis [27]): 0.125 µg/mL (≈ 0.178 µM) | MIC90 (Candida tropicalis [27]): 4 µg/mL (≈ 5.71 µM) | MIC50 (Nakaseomyces glabratus [28]): 1 µg/mL (≈ 1.43 µM) | MIC90 (Nakaseomyces glabratus [28]): ≥ 8 µg/mL | MIC50 [29]: 0.5 µg/mL (≈ 0.713 µM) | MIC90 [29]: 0.5 µg/mL (≈ 0.713 µM) | MIC50 (Nakaseomyces glabratus [30]): 1 µg/mL (≈ 1.43 µM) | MIC90 (Nakaseomyces glabratus [30]): ≥ 8 µg/mL

OC(Cn1cncn1)(Cn1cncn1)c1ccc(F)cc1F [FLUCONAZOLE]
MIC50 (Trichosporon asahii): 2 µg/mL (≈ 6.53 µM) | MIC50 ([Candida] inconspicua): 16 µg/mL (≈ 52.2 µM) | MIC50 (Kodamaea ohmeri): 8 µg/mL (≈ 26.1 µM) | MIC50 ([Candida] palmioleophila): 8 µg/mL (≈ 26.1 µM) | MIC50 (Trichosporon): 2 µg/mL (≈ 6.53 µM) | MIC50 ([Candida] haemuloni): 32 µg/mL (≈ 104 µM) | MIC90 ([Candida] haemuloni): ≥ 64 µg/mL | MIC50 (Diutina rugosa): 1 µg/mL (≈ 3.27 µM) | MIC50 (Meyerozyma caribbica): 8 µg/mL (≈ 26.1 µM) | MIC90 (Meyerozyma caribbica): ≥ 64 µg/mL | MIC50 (Rhodotorula mucilaginosa): ≥ 64 µg/mL | MIC50 (Candida africana): 0.25 µg/mL (≈ 0.816 µM) | MIC50 (Yarrowia lipolytica): 2 µg/mL (≈ 6.53 µM) | MIC50 [1]: 2 µg/mL (≈ 6.53 µM) | MIC50 (Wickerhamomyces anomalus): 2 µg/mL (≈ 6.53 µM) | MIC50 (Debaryomyces hansenii): 0.125 µg/mL (≈ 0.408 µM) | MIC50 (Apiotrichum loubieri): 2 µg/mL (≈ 6.53 µM) | MIC50 (Saccharomyces cerevisiae): 0.25 µg/mL (≈ 0.816 µM) | MIC50 (Cyberlindnera jadinii): 1 µg/mL (≈ 3.27 µM) | MIC50 (Magnusiomyces capitatus): 4 µg/mL (≈ 13.1 µM) | MIC50 (Trichosporon inkin): 0.5 µg/mL (≈ 1.63 µM)

Reference: ChEMBL document CHEMBL1143416, “In vitro susceptibility to posaconazole of 1,903 yeast isolates recovered in France from 2003 to 2006 and tested by the method of the European committee on antimicrobial susceptibility testing” (2007)
